Reference: patent US20070208001A1, “Modulators of 11- beta hydroxyl steroid dehydrogenase type 1, pharmaceutical compositions thereof, and methods of using the same” (priority 2006, published 2007)

Tests used:
[1] = biological target: T1, human 11βHSD1 (Homo sapiens, UniProt P28845); test: Enzymatic assay of 11βHSD1 (Scintillation Proximity Assay, clarified lysates); assay type: biochemical; settings: SPA, HEK-293 lysate expressing full-length human 11βHSD1, 25 nM 3H-cortisone, 400 μM NADPH, 37° C., one hour
T1 construct: made in house; host or cells: HEK-293 transient transfectants; clarified lysate, not purified
T1 sequence (P28845 whole entry): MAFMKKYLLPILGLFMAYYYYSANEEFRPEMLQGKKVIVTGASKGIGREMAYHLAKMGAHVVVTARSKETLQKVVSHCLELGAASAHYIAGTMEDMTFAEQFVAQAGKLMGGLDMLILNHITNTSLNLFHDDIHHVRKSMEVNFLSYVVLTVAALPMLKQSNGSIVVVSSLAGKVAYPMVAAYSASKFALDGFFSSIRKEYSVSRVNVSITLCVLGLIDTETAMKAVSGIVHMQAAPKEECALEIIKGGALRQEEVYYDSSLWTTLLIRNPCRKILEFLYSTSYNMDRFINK
Method: Enzymatic assay of 11βHSD1
All in vitro assays were performed with clarified lysates as the source of 11βHSD1 activity. HEK-293 transient transfectants expressing an epitope-tagged version of full-length human 11βHSD1 were harvested by centrifugation. Roughly 2×10^7 cells were resuspended in 40 mL of lysis buffer (25 mM Tris-HCl, pH 7.5, 0.1 M NaCl, 1 mM MgCl2 and 250 mM sucrose) and lysed in a microfluidizer. Lysates were clarified by centrifugation and the supernatants were aliquoted and frozen.
Inhibition of 11βHSD1 by test compounds was assessed in vitro by a Scintillation Proximity Assay (SPA). Dry test compounds were dissolved at 5 mM in DMSO. These were diluted in DMSO to suitable concentrations for the SPA assay. 0.8 μL of 2-fold serial dilutions of compounds were dotted on 384 well plates in DMSO such that 3 logs of compound concentration were covered. 20 μL of clarified lysate was added to each well. Reactions were initiated by addition of 20 μL of substrate-cofactor mix in assay buffer (25 mM Tris-HCl, pH 7.5, 0.1 M NaCl, 1 mM MgCl2) to final concentrations of 400 μM NADPH, 25 nM ^3H-cortisone and 0.007% Triton X-100. Plates were incubated at 37° C. for one hour. […] Quenched plates were incubated for a minimum of 30 minutes at RT prior to reading on a Topcount scintillation counter. […]

[2] = tested on: healthy volunteers; settings: after seven days of carbenoxolone treatment; cited from earlier work

Row | IC50 [1] | SMILES | IOP was reduced by [2]
1 | < 5 µM | CC(=O)N1CCC2(CC(C3(c4ccc(Cl)cc4)CC3)=NO2)C1 (centres unmarked) [Example 1, 7-Acetyl-3-[1-(4-chlorophenyl)cyclopropyl]-1-oxa-2,7-diazaspiro[4.4]non-2-ene] | 
2 |  | CC1(C)[C@@H](OC(=O)CCC(=O)O)CC[C@]2(C)[C@H]3C(=O)C=C4[C@@H]5C[C@@](C)(C(=O)O)CC[C@]5(C)CC[C@@]4(C)[C@]3(C)CC[C@@H]12 [carbenoxolone] | 18%
